System: T1, CtrSTP1
T1 construct: full CDS in pDR196, expressed in hexose/sucrose transport-deficient yeast strain CSY4000; plasma membrane hexose transporter
Assay: […]-glucose uptake in CSY4000 yeast, Eadie-Hofstee
Type: cell-based, Citrus trifoliata
Conditions: pH 5.0; 30 °C; 25 mM sodium phosphate; whole yeast cells; labelled compound; proton-coupled

Km: 101 ± 23.9 µM
Structure (SMILES): OC[C@H]1OC(O)[C@H](O)[C@@H](O)[C@@H]1O (stereo partly shown) [glucose]
